pIC50: −log10 of the molar value.
Experiments:
[1] = Induction of cell cycle arrest in mouse BaF3 cells harboring CCDC6-RET G810C mutant assessed as accumulation of cells at G2/M phase at 100 nM incubated for 24 hrs by propidium iodide staining based analysis (reference value: 34.75%); format: functional
[2] = Induction of apoptosis in mouse BaF3 cells harboring CCDC6-RET G810C mutant assessed as viable cells at 100 nM incubated for 48 hrs by Annexin V-PE staining based flow cytometry analysis (Rvb =86.47%); format: functional; settings: read-out: Activity
[3] = Induction of cell cycle arrest in mouse BaF3 cells harboring CCDC6-RET G810R mutant assessed as accumulation of cells at G0/G1 phase at 10 nM incubated for 24 hrs by propidium iodide staining based analysis (reference value: 52.63%); format: functional
[4] = Induction of apoptosis in mouse BaF3 cells harboring CCDC6-RET assessed as early apoptotic cells at 300 nM incubated for 48 hrs by Annexin V-PE staining based flow cytometry analysis (Rvb =6.21%); format: functional
[5] = Induction of cell cycle arrest in mouse BaF3 cells harboring CCDC6-RET G810C mutant assessed as accumulation of cells at G0/G1 phase at 30 nM incubated for 24 hrs by propidium iodide staining based analysis (reference value: 52.11%); format: functional
[6] = Induction of apoptosis in mouse BaF3 cells harboring CCDC6-RET G810C mutant assessed as necrotic cells at 10 nM incubated for 48 hrs by Annexin V-PE staining based flow cytometry analysis (Rvb =0.48%); format: functional
BaF3 [7] = experiment: Inhibition of SHC phosphorylation in mouse BaF3 cells harboring CCDC6-RET incubated for 12 hrs by Western blotting analysis; format: cell-based; settings: dose <= 300.0 nM
[8] = molecular target: Proto-oncogene tyrosine-protein kinase receptor Ret (Homo sapiens, UniProt P07949); experiment: Inhibition of RET (unknown origin) at 1 uM relative to control
Proto-oncogene tyrosine-protein kinase receptor Ret (Homo sapiens, UniProt P07949), sequence (P07949 whole entry): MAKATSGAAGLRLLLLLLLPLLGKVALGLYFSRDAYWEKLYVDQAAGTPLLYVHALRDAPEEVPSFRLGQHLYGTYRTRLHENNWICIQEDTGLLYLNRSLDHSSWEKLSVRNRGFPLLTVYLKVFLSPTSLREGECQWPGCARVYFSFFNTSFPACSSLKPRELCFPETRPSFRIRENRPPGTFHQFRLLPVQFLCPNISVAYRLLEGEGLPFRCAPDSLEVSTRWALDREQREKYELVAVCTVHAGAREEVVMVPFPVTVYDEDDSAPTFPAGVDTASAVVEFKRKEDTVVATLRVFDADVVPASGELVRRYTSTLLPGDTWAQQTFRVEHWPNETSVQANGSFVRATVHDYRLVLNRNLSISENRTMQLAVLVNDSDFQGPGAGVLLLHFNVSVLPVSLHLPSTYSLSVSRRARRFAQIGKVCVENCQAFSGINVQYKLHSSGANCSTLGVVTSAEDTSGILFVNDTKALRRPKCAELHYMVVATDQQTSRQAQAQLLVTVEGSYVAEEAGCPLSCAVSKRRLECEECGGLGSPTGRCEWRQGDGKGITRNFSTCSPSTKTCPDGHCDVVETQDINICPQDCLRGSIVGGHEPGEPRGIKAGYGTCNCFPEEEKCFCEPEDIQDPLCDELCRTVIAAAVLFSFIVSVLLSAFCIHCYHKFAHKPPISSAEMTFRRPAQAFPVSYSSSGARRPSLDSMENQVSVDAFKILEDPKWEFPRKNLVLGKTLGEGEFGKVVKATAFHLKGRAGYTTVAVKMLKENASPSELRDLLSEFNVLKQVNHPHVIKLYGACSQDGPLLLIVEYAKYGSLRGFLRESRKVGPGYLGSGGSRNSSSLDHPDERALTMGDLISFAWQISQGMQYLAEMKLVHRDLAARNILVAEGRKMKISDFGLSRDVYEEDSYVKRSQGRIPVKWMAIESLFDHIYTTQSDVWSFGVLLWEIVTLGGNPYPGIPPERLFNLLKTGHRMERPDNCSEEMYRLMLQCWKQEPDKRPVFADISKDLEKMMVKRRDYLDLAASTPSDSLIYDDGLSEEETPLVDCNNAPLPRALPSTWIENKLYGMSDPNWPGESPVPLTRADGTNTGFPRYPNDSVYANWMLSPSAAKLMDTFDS

[9] = Induction of cell cycle arrest in mouse BaF3 cells harboring CCDC6-RET G810C mutant assessed as accumulation of cells at G2/M phase at 10 nM incubated for 24 hrs by propidium iodide staining based analysis (reference value: 34.75%); format: functional
BaF3 [10] = experiment: Antiproliferative activity against mouse BaF3 cells harbouring CCDC6-RET assessed as inhibition of cell proliferation incubated for 72 hrs by CCK-8 assay; format: functional, cell-based; settings: BaF3, 72 h
[11] = Induction of apoptosis in mouse BaF3 cells harboring CCDC6-RET G810R mutant assessed as early apoptotic cells at 30 nM incubated for 48 hrs by Annexin V-PE staining based flow cytometry analysis (Rvb =10 %); format: functional
[12] = Induction of cell cycle arrest in mouse BaF3 cells harboring CCDC6-RET G810C mutant assessed as accumulation of cells at S phase at 10 nM incubated for 24 hrs by propidium iodide staining based analysis (reference value: 12.47%); format: functional
[13] = Induction of cell cycle arrest in mouse BaF3 cells harboring CCDC6-RET G810R mutant assessed as accumulation of cells at G2/M phase at 30 nM incubated for 24 hrs by propidium iodide staining based analysis (reference value: 33.61%); format: functional
[14] = Induction of apoptosis in mouse BaF3 cells harboring CCDC6-RET G810C mutant assessed as viable cells at 10 nM incubated for 48 hrs by Annexin V-PE staining based flow cytometry analysis (Rvb =86.47%); format: functional; settings: read-out: Activity
[15] = Induction of apoptosis in mouse BaF3 cells harboring CCDC6-RET G810C mutant assessed as viable cells at 300 nM incubated for 48 hrs by Annexin V-PE staining based flow cytometry analysis (Rvb =86.47%); format: functional; settings: read-out: Activity
[16] = Induction of apoptosis in mouse BaF3 cells harboring CCDC6-RET G810C mutant assessed as early apoptotic cells at 30 nM incubated for 48 hrs by Annexin V-PE staining based flow cytometry analysis (Rvb =8.74%); format: functional
[17] = system: Proto-oncogene tyrosine-protein kinase receptor Ret (Homo sapiens), P07949 [G810R]; experiment: Inhibition of RET (unknown origin) G810R mutant at 1 uM relative to control
Proto-oncogene tyrosine-protein kinase receptor Ret (Homo sapiens), P07949 [G810R], sequence (P07949 whole entry G810R): as the sequence (P07949 whole entry) above, with G810R counted along it

[18] = Induction of apoptosis in mouse BaF3 cells harboring CCDC6-RET G810R mutant assessed as late apoptotic cells at 300 nM incubated for 48 hrs by Annexin V-PE staining based flow cytometry analysis (Rvb =3.21%); format: functional
[19] = Induction of cell cycle arrest in mouse BaF3 cells harboring CCDC6-RET assessed as accumulation of cells at G0/G1 phase at 300 nM incubated for 24 hrs by propidium iodide staining based analysis (reference value: 52.51%); format: functional
[20] = Induction of apoptosis in mouse BaF3 cells harboring CCDC6-RET assessed as necrotic cells at 300 nM incubated for 48 hrs by Annexin V-PE staining based flow cytometry analysis (Rvb =0.19%); format: functional
[21] = Induction of cell cycle arrest in mouse BaF3 cells harboring CCDC6-RET assessed as accumulation of cells at G2/M phase at 100 nM incubated for 24 hrs by propidium iodide staining based analysis (reference value: 34.11%); format: functional
[22] = Induction of cell cycle arrest in mouse BaF3 cells harboring CCDC6-RET assessed as accumulation of cells at G0/G1 phase at 30 nM incubated for 24 hrs by propidium iodide staining based analysis (reference value: 52.51%); format: functional
[23] = Induction of apoptosis in mouse BaF3 cells harboring CCDC6-RET G810C mutant assessed as late apoptotic cells at 100 nM incubated for 48 hrs by Annexin V-PE staining based flow cytometry analysis (Rvb =4.30%); format: functional
[24] = Induction of apoptosis in mouse BaF3 cells harboring CCDC6-RET G810C mutant assessed as late apoptotic cells at 10 nM incubated for 48 hrs by Annexin V-PE staining based flow cytometry analysis (Rvb =4.30%); format: functional
[25] = Induction of cell cycle arrest in mouse BaF3 cells harboring CCDC6-RET G810R mutant assessed as accumulation of cells at G2/M phase at 10 nM incubated for 24 hrs by propidium iodide staining based analysis (reference value: 33.61%); format: functional
[26] = Induction of apoptosis in mouse BaF3 cells harboring CCDC6-RET G810C mutant assessed as viable cells at 30 nM incubated for 48 hrs by Annexin V-PE staining based flow cytometry analysis (Rvb =86.47%); format: functional; settings: read-out: Activity
[27] = molecular target: Proto-oncogene tyrosine-protein kinase receptor Ret (Homo sapiens, UniProt P07949, G810R); experiment: Inhibition of RET (unknown origin) G810R mutant
Proto-oncogene tyrosine-protein kinase receptor Ret (Homo sapiens, UniProt P07949, G810R), sequence (P07949 29-1114 G810R limits assumed): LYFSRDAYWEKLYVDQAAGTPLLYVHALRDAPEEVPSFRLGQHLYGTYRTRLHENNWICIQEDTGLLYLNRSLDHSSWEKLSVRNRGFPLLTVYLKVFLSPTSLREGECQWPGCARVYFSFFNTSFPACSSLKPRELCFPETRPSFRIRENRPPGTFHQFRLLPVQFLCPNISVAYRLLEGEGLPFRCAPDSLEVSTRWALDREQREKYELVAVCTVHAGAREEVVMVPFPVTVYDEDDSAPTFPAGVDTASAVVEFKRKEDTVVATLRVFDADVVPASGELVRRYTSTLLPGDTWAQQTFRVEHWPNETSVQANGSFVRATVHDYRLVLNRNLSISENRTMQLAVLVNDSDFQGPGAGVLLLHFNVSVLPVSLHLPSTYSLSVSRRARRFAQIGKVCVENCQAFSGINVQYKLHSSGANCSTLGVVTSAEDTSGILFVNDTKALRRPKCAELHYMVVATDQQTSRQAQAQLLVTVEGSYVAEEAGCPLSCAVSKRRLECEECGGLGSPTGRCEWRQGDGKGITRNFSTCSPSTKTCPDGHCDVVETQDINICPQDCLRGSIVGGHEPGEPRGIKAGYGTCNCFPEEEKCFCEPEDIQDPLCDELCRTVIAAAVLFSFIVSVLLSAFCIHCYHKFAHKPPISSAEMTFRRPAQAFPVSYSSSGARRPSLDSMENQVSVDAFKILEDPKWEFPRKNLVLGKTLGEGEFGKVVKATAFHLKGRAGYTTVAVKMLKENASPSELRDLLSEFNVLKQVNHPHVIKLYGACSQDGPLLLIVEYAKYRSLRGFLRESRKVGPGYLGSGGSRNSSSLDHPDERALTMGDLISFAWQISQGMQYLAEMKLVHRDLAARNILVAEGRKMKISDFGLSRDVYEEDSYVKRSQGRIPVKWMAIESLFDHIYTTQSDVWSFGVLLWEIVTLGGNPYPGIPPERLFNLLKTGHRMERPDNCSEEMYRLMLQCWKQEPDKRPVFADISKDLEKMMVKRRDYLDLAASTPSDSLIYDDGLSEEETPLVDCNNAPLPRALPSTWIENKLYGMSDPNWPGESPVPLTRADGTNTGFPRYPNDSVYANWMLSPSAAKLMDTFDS

[28] = molecular target: Proto-oncogene tyrosine-protein kinase receptor Ret (Homo sapiens, UniProt P07949, V804M); experiment: Inhibition of RET (unknown origin) V804M mutant
Proto-oncogene tyrosine-protein kinase receptor Ret (Homo sapiens, UniProt P07949, V804M), sequence (P07949 29-1114 V804M limits assumed): as the sequence (P07949 29-1114 G810R limits assumed) above, with V776M, R782G counted along it

Ephrin type-A receptor 2 [29] = molecular target: T1, Ephrin type-A receptor 2 (Homo sapiens, UniProt P29317); experiment: Inhibition of EPHA2 (unknown origin) at 1 uM relative to control
T1 sequence (P29317 whole entry): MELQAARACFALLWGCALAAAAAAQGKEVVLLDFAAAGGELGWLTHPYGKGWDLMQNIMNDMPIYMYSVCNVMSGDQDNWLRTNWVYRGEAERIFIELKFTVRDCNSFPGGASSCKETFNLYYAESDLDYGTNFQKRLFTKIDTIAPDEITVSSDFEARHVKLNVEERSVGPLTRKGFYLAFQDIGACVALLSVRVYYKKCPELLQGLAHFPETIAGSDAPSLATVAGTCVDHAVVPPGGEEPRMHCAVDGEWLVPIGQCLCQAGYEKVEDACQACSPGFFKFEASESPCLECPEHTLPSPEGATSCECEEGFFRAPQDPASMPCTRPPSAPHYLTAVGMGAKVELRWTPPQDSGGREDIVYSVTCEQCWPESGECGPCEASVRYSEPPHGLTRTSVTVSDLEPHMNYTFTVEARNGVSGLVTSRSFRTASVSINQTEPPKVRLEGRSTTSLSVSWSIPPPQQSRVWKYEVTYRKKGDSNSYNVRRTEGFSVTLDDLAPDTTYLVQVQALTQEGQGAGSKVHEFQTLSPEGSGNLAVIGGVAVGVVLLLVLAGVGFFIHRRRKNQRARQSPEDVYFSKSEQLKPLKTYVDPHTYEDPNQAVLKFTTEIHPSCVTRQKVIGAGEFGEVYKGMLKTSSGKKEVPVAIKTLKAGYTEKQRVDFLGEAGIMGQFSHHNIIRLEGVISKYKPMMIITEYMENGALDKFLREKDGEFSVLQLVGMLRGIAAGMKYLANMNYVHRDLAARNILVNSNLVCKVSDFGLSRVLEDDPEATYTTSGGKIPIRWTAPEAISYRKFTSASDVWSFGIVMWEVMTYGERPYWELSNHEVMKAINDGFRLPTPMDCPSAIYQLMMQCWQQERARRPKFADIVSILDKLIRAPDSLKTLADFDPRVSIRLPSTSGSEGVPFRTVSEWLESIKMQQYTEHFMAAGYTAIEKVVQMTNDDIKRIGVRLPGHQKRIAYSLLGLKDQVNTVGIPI

Ephrin type-A receptor 2 [30] = molecular target: T1, Ephrin type-A receptor 2; experiment: Inhibition of EPHA2 (unknown origin)
[31] = Induction of cell cycle arrest in mouse BaF3 cells harboring CCDC6-RET G810R mutant assessed as accumulation of cells at G0/G1 phase at 100 nM incubated for 24 hrs by propidium iodide staining based analysis (reference value: 52.63%); format: functional

inhibition [8]: 98.3%
pIC50 (BaF3 [10]): 7.89
inhibition [17]: 74%
pIC50 [27]: 7.49
pIC50 [28]: 6.79
inhibition (Ephrin type-A receptor 2 [29]): 100%
pIC50 (Ephrin type-A receptor 2 [30]): 7.20
SMILES: COc1cncc(-c2cn[nH]c2/C=C/c2ccc(NC(=O)Nc3cc(C(C)(C)C(F)(F)F)on3)c(Cl)c2)c1
Activity [1]: 25.81%
viability at 0.1 µM [2]: 60%
Activity [3]: 54.03%
Activity [4]: 54.65%
Activity [5]: 57.08%
Activity [6]: 0.49%
inhibition (BaF3 [7]): Dose-dependent-effect
Activity [9]: 33.74%
Activity [11]: 9.96%
Activity [12]: 12.31%
Activity [13]: 32.17%
viability at 0.01 µM [14]: 87.1%
viability at 0.3 µM [15]: 8.22%
Activity [16]: 9.54%
Activity [18]: 9.06%
Activity [19]: 84.1%
Activity [20]: 0.04%
Activity [21]: 23.17%
Activity [22]: 56.2%
Activity [23]: 1.87%
Activity [24]: 3.24%
Activity [25]: 32.33%
viability at 0.03 µM [26]: 86.2%
Activity [31]: 57.96%

Reference: ChEMBL document CHEMBL6103575, “Design, synthesis and evaluation of (E)-1-(4-(2-(1H-pyrazol-5-yl)vinyl)phenyl) derivatives as next generation selective RET inhibitors overcoming RET solvent front mutations (G810C/R)” (Eur J Med Chem, 2025)
